Test results published in US11591301B2, “Indoleamine-2,3-dioxygenase inhibitor, preparation method therefor and use thereof” (HINOVA PHARMACEUTICALS INC., priority 2018, dated 2023).
pIC50: −log10 of the molar value.

Experiments:
[1] = target: IDO1 protease activity in Hela cells (Homo sapiens (Human), UniProt P14902); experiment: Inhibition of IDO protease in HeLa cells (IDO/kynurenine experiment, IFN-γ induced); assay type: cell-based; settings: 10 ng/mL IFN-γ, 48 h, OD480 nm, read-out: IC50, inhibitory activity against IDO1 protease activity in Hela cells
Chain of IDO1 protease activity in Hela cells (P14902 whole entry): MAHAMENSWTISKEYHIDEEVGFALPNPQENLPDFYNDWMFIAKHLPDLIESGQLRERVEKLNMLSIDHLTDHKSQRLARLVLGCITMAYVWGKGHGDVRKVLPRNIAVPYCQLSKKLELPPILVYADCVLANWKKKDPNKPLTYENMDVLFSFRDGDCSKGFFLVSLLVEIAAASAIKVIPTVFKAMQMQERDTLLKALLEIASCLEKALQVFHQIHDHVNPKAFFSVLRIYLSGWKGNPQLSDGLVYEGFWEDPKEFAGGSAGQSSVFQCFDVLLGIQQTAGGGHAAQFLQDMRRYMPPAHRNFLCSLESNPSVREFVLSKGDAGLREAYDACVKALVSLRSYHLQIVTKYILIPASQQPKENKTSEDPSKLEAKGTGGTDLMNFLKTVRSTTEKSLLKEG
Method: 2) Experimental Method for Compound Assay 2.1 Seeding HeLa Cells into 96 Well Plate
The medium was taken out from the flask and the cells were washed with PBS. TrypLE solution was added to the flask to make the cells separate. The cells were further washed once with fresh medium containing 10% FBS, and then re-suspended in the medium until the final concentration was 2.3×10^6/mL. Only cells with activity greater than 90% can be used for detection. HeLa cells were planted into 100 μL suitable growth median 96 well plate at 3000 cells/well. The cells were incubated at 37° C. under 5% CO2 overnight.
The compound was diluted to the concentration of 10 mM with DMSO, that was then continuously diluted 3 times to get 9 concentrations. 5 μL compound was added into 45 μL media as the median dilution (10 times dilution, containing 10% DMSO). 96 μL fresh growth media were added to each well to reach the total volume of 196 μL. 2 μL compound solution was taken from the mid-diluted solution and added to the cells in the wells of the assay plate, and then incubated in a 5% CO2 incubator at 37° C. for 30 minutes. 2 μL human IFN-γ solution was added to reach a total volume of 200 μL, with the final concentration of 10 ng/mL, and the final concentration is 0.1%. The cells were incubated in 5% CO2 incubator at 37° C. for 48 h.
After incubating for another 48 hours in a 5% CO2 incubator at 37° C., 140 μL supernatant was added to each well and transferred to a new 96-well plate. 10 μL of 6.1N CCl3COOH was further added to each well, and incubated at 50° C. for 30 min after sealing. The plate was then centrifuged at 2500 rpm for 10 minutes. 100 μL supernatant in each well was transferred to another 96-well assay plate and mixed with 100 μL of 6% (w/v) p-dimethylaminobenzaldehyde. EnSpire was used to read the plate at OD480 nm.
The average data of HC (high control: 10 ng/mL IFN-γ) and LC (low control: no IFN-γ) were calculated for each screening plate. Percent inhibition of compound well (% inh)=100*(aveHC−cpd well)/(aveHC−ave LC). Finally, GraphPad Prism 6 software was used to calculate the IC50 values of compounds and draw the effect-concentration curve.

[2] = Metabolic stability in mouse liver microsomes; assay type: in vitro ADME; settings: mouse liver microsomes 0.5 mg/mL; read-out: Mouse liver microsomes Half-life t1/2
Method: (§1) Step 1: the mother liquor is prepared according to the composition ratio in Table 3 below:
(§2) Step 2: two experiments were respectively carried out as follows:
(§3) A) Adding NADPH:10 μL of liver microsomes at a concentration of 20 mg/mL and 40 μL of NADPH at a concentration of 10 mM were added to the incubation test. The final concentrations of liver microsomes and NADPH were 0.5 mg/mL and 1 mM, respectively.
(§4) B) Without addition of NADPH:10 μL of liver microsomes at a concentration of 20 mg/mL and 40 μL of high purity water were added to the incubation test. The final concentration of liver microsome was 0.5 mg/mL.
(§5) Step 3: 4 μL of 200 µM positive control or test compound was added and then the reaction was carried out. The positive control in this experiment was Verapamil. The final concentration of test compound was […].
(§6) Step 4: 50 μL was respectively taken out from the reaction solutions at the time points of 0, 15, 30, 45 and 60 min. 4× volumes of acetonitrile and IS (alprazolam at the concentration of 100 nM, labetalol at the concentration of 200 nM, caffeine at the concentration of 200 nM and ketoprofen at the concentration of 2 μM) were added to the reaction solution. The sample was centrifuged at 3,220 gram gravity for 40 minutes. 100 μL high-purity water was added to 100 μL supernatant and then analyzed by LC-MS/MS.
(§7) Step 5: Data analysis: the peak area was determined from the extracted ion chromatogram. The slope value k was determined by linear regression of the natural logarithm from the curve produced by the remaining percentage of the parent drug vs the incubation time.
(§8) In vitro half-life (in vitro t1/2) is determined by the slope value: in vitro t1/2=−(0.693/k)

[3] = Metabolic stability in rat liver microsomes; assay type: in vitro ADME; settings: rat liver microsomes 0.5 mg/mL; read-out: Rat liver microsomes Half-life t1/2
Method: as §1, §2, §3, §4, §5, §6, §7, §8

[4] = Metabolic stability in human liver microsomes; assay type: in vitro ADME; settings: human liver microsomes 0.5 mg/mL; read-out: Human liver microsomes Half-life t1/2
Method: as §1, §2, §3, §4, §5, §6, §7, §8

[5] = target: human IDO1 protease (Homo sapiens (Human), UniProt P14902); experiment: Inhibitory activity against human IDO1 protease (absorbance test method); assay type: biochemical; settings: IDO1 (His-tag) enzyme, absorbance at 320 nm
Chain of human IDO1 protease (P14902 whole entry): as above
Method: IDO1 (His-tag) enzyme(BPS Bioscience), L-tryptophan (Sigma), methylene blue (Sigma), Catalase originated from the liver of cattle (Sigma), L-ascorbic acid (Sigma), glycerol (Sigma), potassium dihydrogen phosphate solution (Sigma), Tween 20 (Sigma), automatic sampling platformLiquid handler (Bravo & Echo), microplate ReaderSpectraMax M5e (Molecular Devices).
2) Test Method of Compounds: The Compounds are Determined by Absorbance Test Method:
The tested compounds are dissolved in DMSO to prepare a high concentration of storage solution. The stock solution of reference compound was diluted with DMSO to prepare a 100× solution. In the first column of the working plate, 8 μL above tested compounds and 8 μL 100× reference compound were respectively added as the highest concentration, and then the highest concentrations were subjected to three times dilution to obtain 11 concentrations and prepare 100× solution. 0.5 μL solution was transferred from the above plate to the detection plate. To each well was added 0.5 μL 100× compound solution. For HPE and ZPE control wells, 0.5 μL 100% DMSO was added. 25 μL 2×IDO1 (His-tag) enzyme solution (containing L-ascorbic acid, methylene blue, and catalase) was added to each well. 25 μL reaction solution without IDO1 (His-tag) enzyme was added into HPE control well. The test plate was centrifugated at 1000 rpm for 1 minute to mix well. Then, the test plate was incubated at room temperature for 30 minutes. 25 μL above 2× substrate (L-tryptophan) solution was added to each well. The test plate was centrifugated at 1000 rpm for 1 minute to mix well. The detection plate was placed on ELISA (SpectraMax M5e), the temperature was set at 25° C., and the absorbance (OD value) was measured at 320 nm every 10 minutes till 60 minutes.
Calculating the increase ratio of absorbance: the slope of the absorbance increase curve from 10 min to 60 min is derived from SpectralMax M5e. The inhibition coefficient of compound was calculated: the inhibition ratio of compound=(the absorbance increase ratio of ZPE control well−the absorbance increase ratio of compound well)/(the absorbance increase ratio of ZPE control well−the absorbance increase ratio of HPE control well)×100. Results was analyzed by Prism 5.0.

[6] = Pharmacokinetic experiment in mice (PO); assay type: in vivo; settings: ICR, mouse, plasma, 10 mg/kg, 10 mpk; for Cmax: read-out: Blood concentration Cmax; for AUC: read-out: Curve area AUC; for half-life: read-out: Half life t1/2 (converted); for Tmax: read-out: Peak hour tmax
Method: Experimental animals: ICR mice (Chengdu Dashuo Experimental Animal Co., Ltd.)
5 mg of compound (compound 4 of the present invention, using similar compound INCB-24360 in clinical Phase III as reference compound) was accurately weighed, and the corresponding vehicle was added to a final volume of 10 ml, then mixed by ultrasonic vortexing. The solution at the concentration of 0.5 mg/ml was prepared. The final solution (0.2 ml) prepared was stored at −20° C. for concentration determination. 9 healthy adult ICR mice (20-30 g) were fasted overnight (free access to water), and received the administration volume of 0.2 ml/10 g by gavage; just prior to administration and 0.5, 1, 2, 4, 6, 8, 12, and 24 h after administration, 0.1 ml blood was collected from the retroorbital venous plexus, centrifuged at 4° C. for 5 min to separate the plasma, and stored at −20° C. for testing. Then the concentration of test compound in plasma was measured by LC/MS/MS method.

Row | Structure (SMILES) | pIC50 [1] | half-life at 2 µM [2] [h] | half-life at 2 µM [3] [h] | half-life at 2 µM [4] [h] | pIC50 [5] | Cmax [6] [ng/mL] | AUC [6] [ng·h/mL] | half-life [6] [h] | Tmax [6] [h]
1 | NS(=O)(=O)CCCCNc1nonc1C(=NO)Nc1ccc(F)c(Br)c1 [Example 22, N-(3-bromo-4-fluorophenyl)-N′-hydroxyl-4-((4-sulfamoylbutyl)amino)-1,2,5-oxadiazol-3-formamidine] | 7.92 | 1.45 | 1.22 | 29.4 |  |  |  |  | 
2 | NS(=O)(=O)CCNc1nonc1C(=NO)Nc1ccc(F)c(Br)c1 [Example 1, N-(3-bromo-4-fluorophenyl)-N′-hydroxyl-4-((2-sulfamoylethyl)amino)-1,2,5-oxadiazol-3-formamidine] |  | 0.8 | 1.73 | 7.45 | 7.72 | 555 | 1320 | 1.28 | 0.67
3 | CCNS(=O)(=O)CCCNc1nonc1C(=NO)Nc1ccc(F)c(Br)c1 [Example 12, N-(3-bromo-4-fluorophenyl)-N′-hydroxyl-4-((3-(N-ethylsulfamoyl)propyl)amino)-1,2,5-oxadiazol-3-formamidine] | 7.92 | 0.383 | 0.317 | 2.73 | 7.33 | 704 | 1080 | 2.87 | 0.5
4 | [2H]C([2H])([2H])NS(=O)(=O)CCCNc1nonc1/C(=N/O)Nc1ccc(F)c(Br)c1 [Example 27, N-(3-bromo-4-fluorophenyl)-N′-hydroxyl-4-((3-(N-(methyl-d3)sulfonyl)propyl)amino)-1,2,5-oxadiazol-3-oximecarboxamide] | 8.00 | 0.35 | 0.633 | 5.72 |  | 469 | 1050 | 2.5 | 0.5
5 | CNS(=O)(=O)CCCNc1nonc1/C(=N/O)Nc1ccc(F)c(Br)c1 [Example 11, N-(3-bromo-4-fluorophenyl)-N′-hydroxyl-4-((3-(N-methylsulfamoyl)propyl)amino)-1,2,5-oxadiazol-3-formamidine] | 8.10 | 0.167 | 0.4 | 1.55 |  | 687 | 845 | 1.15 | 0.5
6 | NS(=O)(=O)NCCNc1nonc1C(=NO)Nc1ccc(F)c(Br)c1 [INCB024360, reference compound] |  | 1.3 | 2.43 | 2.62 |  |  |  |  | 
